Test results published in article PMC12603070, “A high-throughput screening approach to discover potential colorectal cancer chemotherapeutics: repurposing drugs to identify novel disruptors of 14-3-3 proteins” (Cell Death & Disease, 2025).
Counter-ions that a name gives are not always drawn. Like-named read-outs stand apart in the source and are kept apart here.

How the values were obtained:
[1] = test system: HT-29 cells; assay: Hoechst/propidium iodide cell death assay in HT-29; format: cell-based, human; details: Homo sapiens
Excerpt: (§1) A high-content imaging system (PerkinElmer; Operetta CLS), was used to quantify cell death and apoptosis by calculating the number of propidium iodide-positive cells relative to Hoechst-positive cells, and the number of Annexin V-positive cells relative to Hoechst-positive cells, respectively.

[2] = target: T1, 14-3-3ζ:BAD-112-136F interactions (Homo sapiens, UniProt P63104); assay: BRET sensor screen for disruption of 14-3-3ζ-Rluc8:BAD-112-136F-mCitrine in living NIH-3T3 cells; format: cell-based, murine; set-up: inhibition: dose or concentration left out as unconfirmed; details: for inhibition / inhibition at 20 µM: NIH3T3, 3 h, read-out: BRET reduction on NIH-3T3
T1 construct: expressed in transfected cells; host or cells: NIH-3T3 fibroblasts, bi-directional pBI-CMV1 plasmid
T1 sequence (P63104 1-245): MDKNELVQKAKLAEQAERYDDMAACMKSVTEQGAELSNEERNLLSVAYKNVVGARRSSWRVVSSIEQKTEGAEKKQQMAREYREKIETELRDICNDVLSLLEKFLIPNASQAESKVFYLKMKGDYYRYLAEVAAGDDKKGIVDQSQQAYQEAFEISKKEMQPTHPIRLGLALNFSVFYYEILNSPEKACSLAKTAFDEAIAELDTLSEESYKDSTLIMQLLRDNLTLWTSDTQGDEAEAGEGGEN
Procedure: The Z’-score, which evaluates the robustness of an HTS assay readout, was calculated according to standard protocols. For the HTS, 384-well plates were coated with 100 μg/mL poly-L-ornithine (Sigma, Missouri, United States; #P3655) overnight at 37 °C, followed by rinsing with sterilized water. NIH-3T3 cells were transfected with the BRET sensor two days prior to experimentation, followed by replating onto the pre-coated 384-well plates at a density of 20,000 cells/well. After 24 h of incubation at 37 °C, growth media was replaced by Krebs buffer (pH 7.4).

[3] = test system: NIH-3T3 cells; assay: Hoechst/propidium iodide cell death assay in NIH-3T3; format: cell-based; details: for cytotoxicity at 20 µM: Mus musculus, NIH3T3, 24 h, read-out: Percentage of cell death % 24h NIH3t3
Excerpt: as §1

[4] = HT-29, 24 h, 20 µM, 24 h, read-out: Percentage of cell death % 24h HT-29
[5] = HT-29, 48 h, HT-29, 48h, 20 μM, read-out: Percentage of cell death % 48h, HT-29
[6] = NIH-3T3 cells, hits from the primary screen
[7] = NIH-3T3 expressing BRET sensor, 20 µM, 3 h
[8] = HT-29, 24 h, read-out: Percentage of cell death % 24h HT-29
[9] = HT-29, 48 h, read-out: Percentage of cell death % 48h, HT-29

Row | SMILES | cytotoxicity at 20 µM [1, 4] [%] | cytotoxicity at 20 µM [1, 5] [%] | inhibition [2, 6] [%] | inhibition at 20 µM [2, 7] [%] | cytotoxicity at 20 µM ([3]; 20 µM, 24 h) [%] | Percentage of cell death % 48h, NIH3T3 [3] [%] | inhibition at 20 µM [2, 6] [%] | Percentage of cell death % 24h NIH3t3 ([3]; 20 µM, 24 h) [%] | cytotoxicity at 20 µM [1, 8] [%] | cytotoxicity at 20 µM [1, 9] [%] | inhibition at 20 µM [2] [%] | BRET reduction on NIH-3T3 [2, 6] | cytotoxicity at 20 µM [3] [%]
1 | Clc1ccc(C(c2ccccc2Cl)C(Cl)Cl)cc1 (stereo not shown) [Mitotane (Lsodren), Mitotane] | 0.553 | 1.62 | 25.6 | 25.6 | 25.3 | 5.575 | – | – | – | – | – | – | –
2 | Clc1ccc(C(Cn2ccnc2)OCc2csc3c(Cl)cccc23)c(Cl)c1 (stereo not shown) [Sertaconazole nitrate] | 2.46 | 4.64 | 46.8 | 46.8 | 4.15 | 10.0161 | – | – | – | – | – | – | –
3 | Clc1ccc(C(Cn2ccnc2)OCc2ccsc2Cl)c(Cl)c1 (stereo not shown) [Tioconazole] | 2.22 | 5.98 | – | 27.3 | 7.78 | 3.795 | 27.3 | – | – | – | – | – | –
4 | CSc1ccc2c(c1)N(CCC1CCCCN1C)c1ccccc1S2 (stereo not shown) [Thioridazine HCl] | 1.72 | 16.7 | 27.4 | 27.4 | 83.3 | 84.4863 | – | – | – | – | – | – | –
5 | CN(C)c1ccc(C(=C2C=CC(=[N+](C)C)C=C2)c2ccc(N(C)C)cc2)cc1 [Crystal Violet] | 94.9 | 95.4 | 75.6 | 75.6 | 94.3 | 91.1305 | – | – | – | – | – | – | –
6 | Clc1ccc(COC(Cn2ccnc2)c2ccc(Cl)cc2Cl)c(Cl)c1 (stereo not shown) [Miconazole] | 2.78 | 5.75 | 48.7 | 48.7 | – | 3.437 | – | 6.07 | – | – | – | – | –
7 | Clc1ccc(COC(Cn2ccnc2)c2ccc(Cl)cc2Cl)cc1 (stereo not shown) [Econazole nitrate] | 8.57 | 13 | 48.3 | 48.3 | 14.2 | 7.996 | – | – | – | – | – | – | –
8 | CCCCCCCCCCCCCCCC[N+](C)(C)CCN(Cc1ccc(OC)cc1)c1ncccn1 [Thonzonium Bromide] | 94.9 | 94.7 | 38.3 | 38.3 | 86.2 | 80.9399 | – | – | – | – | – | – | –
9 | C=C1/C(=C\C=C2/CCC[C@]3(C)[C@@H]([C@H](C)/C=C/[C@@H](O)C4CC4)CC[C@@H]23)C[C@@H](O)C[C@@H]1O [Calcipotriol] | 0.559 | 0.922 | 31.7 | 31.7 | 0.552 | 2.028 | – | – | – | – | – | – | –
10 | CC1(C)[C@@H](O)CC[C@]2(C)[C@H]3C(=O)C=C4[C@@H]5C[C@@](C)(C(=O)O)CC[C@]5(C)CC[C@@]4(C)[C@]3(C)CC[C@@H]12 [Enoxolone] | 0.697 | 1.61 | 42.9 | 42.9 | 4.15 | 0.6522 | – | – | – | – | – | – | –
11 | CC1(C)Cc2c(-c3ccccc3)c(-c3ccc(Cl)cc3)c(CC(=O)O)n2C1 [Licofelone] | 2.67 | 3.98 | 33 | 33 | 0.823 | 0.4583 | – | – | – | – | – | – | –
12 | CC/C(=C(\c1ccccc1)c1ccc(OCCN(C)C)cc1)c1ccccc1 [Tamoxifen Citrate] | 5.86 | 63.3 | 51.8 | 51.8 | 76.5 | 76.3192 | – | – | – | – | – | – | –
13 | C[C@@H](O[C@H]1OCCN(Cc2n[nH]c(=O)[nH]2)[C@H]1c1ccc(F)cc1)c1cc(C(F)(F)F)cc(C(F)(F)F)c1 [Aprepitant] | 1.47 | 3.76 | 26.6 | 26.6 | 1.15 | 2.577 | – | – | – | – | – | – | –
14 | C=CC[C@@H]1/C=C(\C)C[C@H](C)C[C@H](OC)[C@H]2O[C@@](O)(C(=O)C(=O)N3CCCC[C@H]3C(=O)O[C@H](/C(C)=C/[C@@H]3CC[C@@H](O)[C@H](OC)C3)[C@H](C)[C@@H](O)CC1=O)[C@H](C)C[C@@H]2OC [Tacrolimus (FK506), Tacrolimus] | 0.958 | 2.46 | 26 | 26 | 0.808 | 0.523 | – | – | – | – | – | – | –
15 | COc1cc(C)c(/C=C/C(C)=C/C=C/C(C)=C/C(=O)O)c(C)c1C [Acitretin] | – | – | – | – | – | 1.816 | – | – | 0.862 | 1.82 | 31.9 | 31.8517 | 0.791
16 | CCN1CCN(c2cc(-c3ccc(F)cc3)c3c(n2)CCCCCC3)CC1 [Blonanserin] | 2.57 | 15.5 | 25.1 | 25.1 | 1.45 | 1.273 | – | – | – | – | – | – | –
17 | C(=C\c1ccccc1)/CN1CCN(C(c2ccccc2)c2ccccc2)CC1 [Cinnarizine] | 0.381 | 1.26 | – | – | 0.412 | 0.3398 | – | – | – | – | – | – | –
18 | Clc1ccc(CSC(Cn2ccnc2)c2ccc(Cl)cc2Cl)cc1 (stereo not shown) [Sulconazole Nitrate] | 7.98 | 12.2 | – | – | 10.8 | 9.7879 | – | – | – | – | – | – | –
19 | C=C1/C(=C\C=C2/CCC[C@]3(C)[C@@H]([C@H](C)CCCC(C)(C)O)CC[C@@H]23)C[C@@H](O)C[C@@H]1O [Calcitriol] | 0.461 | 0.982 | – | – | 1.56 | 1.321 | – | – | – | – | – | – | –
20 | CC(C)(C)CC(C)(C)c1ccc(OCCOCC[N+](C)(C)Cc2ccccc2)cc1 [Benzethonium Chloride] | – | – | – | – | – | 51.9198 | – | – | 43.5 | 90.4 | – | – | 51.9
